Results from patent US12729377B2, “RNAi agents and compositions for inhibiting expression of angiopoietin-like 3 (ANGPTL3), and methods of use” (Arrowhead Pharmaceuticals, Inc., priority 2017, dated 2026).

What was measured:
Parameters in all cases: key: ratio: (level/pre-treatment day -1 level) ÷ mean of D5W control group
[1] = system: ANGPTL3 gene; assay: Example 7: serum total cholesterol in mice; format: in vivo, C57bl/6 mice
Experimental: (§1) To further assess the in vivo activity of additional ANGPTL3 RNAi agents that are designed to target position 304 on the ANGPTL3 gene, six- to eight-week-old female C57bl/6 mice were used. Pre-dose serum samples were taken at day −1 after a four hour fast. At day 1, each mouse was given a single subcutaneous administration of 200 μl containing 0.5 mg/kg (mpk) of an ANGPTL3 RNAi agent in D5W (dextrose in 5% water), or control (D5W) with no RNAi agent, according to the dosing groups recited in Table 31.
(§2) Each of the RNAi agents included a modified sequence and an N-acetyl-galactosamine-containing targeting ligand conjugated to the 5′ terminal end of the sense strand. (See Tables 3, 4, and 5 for modified sequences and targeting ligand structures). The injections were performed between the skin and muscle (i.e. subcutaneous injections) into the loose skin over the neck and shoulder area. Three (3) mice in each group were tested (n=3). Serum was collected on days 8, 15, 22, and 29. Mice were fasted for four hours prior to each collection. ANGPTL3 protein levels in serum were measured by ELISA assay (R&D Systems), according to the manufacturer's recommendations. Triglycerides, total cholesterol, high-density lipoprotein (HDL), and low-density lipoprotein (LDL) in serum were measured on a Cobas® Integra 400 (Roche Diagnostics), according to the manufacturer's recommendations.
(§3) The ANGPTL3 protein levels, triglyceride levels, total cholesterol levels, HDL levels, and LDL levels for each animal were normalized. For normalization, the level of ANGPTL3 protein, triglyceride, HDL, and total cholesterol, respectively, for each animal at a time point, was divided by the pre-treatment level of expression in that animal (in this case at day −1) to determine the ratio of expression “normalized to pre-treatment.” Expression at a specific time point was then normalized to the D5W control group by dividing the “normalized to pre-treatment” ratio for an individual animal by the mean “normalized to pretreatment” ratio of all mice in the D5W control group.

[2] = system: ANGPTL3 protein; assay: Example 7: serum ANGPTL3 protein by ELISA in mice; format: in vivo, C57bl/6 mice
Experimental: as §1, §2, §3

[3] = system: ANGPTL3 gene; assay: Example 7: serum LDL in mice; format: in vivo; settings: 0.5 mg/kg single SC injection day 1, female C57bl/6 mice, n=3, ratio to D5W control
Experimental: as §1, §2, §3

[4] = system: ANGPTL3 gene; assay: Example 7: serum triglycerides in mice; format: in vivo, C57bl/6 mice
Experimental: as §1, §2, §3

[5] = system: ANGPTL3 gene; assay: Example 7: serum HDL in mice; format: in vivo; settings: 0.5 mg/kg single SC injection day 1, female C57bl/6 mice, n=3, ratio to D5W control
Experimental: as §1, §2, §3

[6] = Day 8, 0.5 mg/kg single SC injection on day 1, n=3
[7] = Day 15, 0.5 mg/kg single SC injection on day 1, n=3
[8] = Day 22, 0.5 mg/kg single SC injection on day 1, n=3
[9] = Day 29, 0.5 mg/kg single SC injection on day 1, n=3

Q: Which results are given for “AD05777: RNAi agent duplex: antisense AM07235-AS, sense AM07610-SS (antisense UACUGAUCAAAUAUGUUGAGC; sense GCUCAACNUNUUUGAUCAGUA; (NAG37)s GalNAc ligand; RNAi agent antisense strand modified sequence; RNAi agent sense strand modified sequence; modified_base 8, 10 n = 2′-O-methyl-2-aminoadenosine-3′-phosphate)”?
A: Avg Total Chol, normalized to pre-treatment and control [1, 6]: 0.797; Avg Total Chol, normalized to pre-treatment and control [1, 7]: 0.800; Avg Total Chol, normalized to pre-treatment and control [1, 8]: 0.794; Avg Total Chol, normalized to pre-treatment and control [1, 9]: 0.995; Avg ANGPTL3, normalized to pre-treatment and control [2, 6]: 0.297; Avg ANGPTL3, normalized to pre-treatment and control [2, 7]: 0.246; Avg ANGPTL3, normalized to pre-treatment and control [2, 8]: 0.257; Avg ANGPTL3, normalized to pre-treatment and control [2, 9]: 0.345; Avg LDL, normalized to pre-treatment and control ([3]; Day 8): 0.886; Avg LDL, normalized to pre-treatment and control ([3]; Day 15): 0.869; Avg LDL, normalized to pre-treatment and control ([3]; Day 22): 0.966; Avg LDL, normalized to pre-treatment and control ([3]; Day 29): 1.224; Avg TG, normalized to pre-treatment and control [4, 6]: 0.755; Avg TG, normalized to pre-treatment and control [4, 7]: 0.702; Avg TG, normalized to pre-treatment and control [4, 8]: 0.700; Avg TG, normalized to pre-treatment and control [4, 9]: 0.648; Avg HDL, normalized to pre-treatment and control ([5]; Day 8): 0.784; Avg HDL, normalized to pre-treatment and control ([5]; Day 15): 0.768; Avg HDL, normalized to pre-treatment and control ([5]; Day 22): 0.801; Avg HDL, normalized to pre-treatment and control ([5]; Day 29): 1.008
